Results on 18 compounds are retold here after patent publication US8853424B2 (Japan Science and Technology Agency, priority 2008, dated 2014).

One test deals with transglutaminase (TGase). Put plainly: Measurement of TG (TGase inhibitory activity, monodansyl cadaverine / N,N-dimethylcasein fluorescence, FDSS 3000). In kind it is biochemical. The method, boiled down:
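Compound (1 μL of 10 mM stock) added to 0.1 mL reaction: 100 mM HEPES-NaOH pH 7.5, 1 mM CaCl2, 20 μM monodansyl cadaverine, 0.05 mg/mL N,N-dimethylcasein, 5 μg/mL TGase. Rate of fluorescence change at 340 nm measured; DMSO control set to 100; TG50 is the concentration halving activity.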

Test [1] concerns Truncated N-terminal huntington 150 Q-EGFP-Neuron 2a cells. Description: Measurement of x-Fold (polyglutamine aggregation inhibitory activity). In kind it is cell-based. The protocol:
In the present invention, the polyglutamine aggregation inhibitory activity (x-Fold) can be measured, for example, by the method described in the Example.
The number of the aggregated cells, and the total number of cells were counted by Array Scan V T1 (manufactured by Cellomics, Pittuburg, USA), and the ratio of the aggregated cells to the total number of cells was determined (x-Fold). […]

In test [2] the test system is SOC (store operated calcium channel). Description: Measurement of SOC IC50 (thapsigargin store depletion, calcium re-addition, CHO cells). In kind it is cell-based. Conditions: read-out: SOC IC50. As to the method:
The SOC (store operated calcium channel)-suppressive action can be measured by the method described in the Example and using, for example, FDSS 3000.
CHO cell culture medium was replaced with a BSS solution which is an extracellular fluidfree of calcium, the compound of the present invention was added 1 min later, and 1 μM thapsigargin was allowed to act thereon 2 min later to deplete intracellular calcium store. […]

The mark [3] stands for this setting: TGase activity with compound (10 mM, 1 μL in 0.1 ml enzyme reaction solution), DMSO control taken as 100.
Where [4] appears, read: TGase inhibitory activity value, Table 1.
Where [5] appears, read: polyglutamine aggregation inhibitory activity, Table 1.
Where [6] appears, read: ratio of aggregated cells to total number of cells, compound 20 μM, 20 hr, almost 1 without compound, smaller = stronger inhibition.
[7] abbreviates: Cricetulus griseus, CHO, CHO cells, 1 μM thapsigargin, 2 mM calcium chloride.
The mark [8] stands for this setting: Cricetulus griseus, CHO, Table 1.
[9] abbreviates: CHO cells, 1 μM thapsigargin, 2 mM calcium chloride.
Setting [10] is: TGase inhibitory activity measurement, unit not given.
[11] abbreviates: polyglutamine aggregation, Truncated N-terminal huntington 150 Q-EGFP-Neuron 2a cells.

SMILES strings stand for the structures. Read-outs that look alike come from different tables or passages of the source.

With `Cc1ccc(B(O)c2ccc(COCc3ccc(B(O)c4ccc(C)cc4)cc3)cc2)cc1` [Example 361, bis(4-(4-methylphenylhydroxyboryl)benzyl)ether], the “TGase activity remaining (% of DMSO control = 100)” value with transglutaminase (TGase) (setting [3]) and in the test on transglutaminase (TGase) (setting [4]) was 100 each time. Moreover, the x-Fold in test [1] (setting [5]) and in test [1] (setting [6]) was 0.88 throughout. Moreover, the IC50 in test [2] (setting [7]) and in test [2] (setting [8]) was > 20000 nM throughout.

Take `NCCOB(c1ccccc1)c1ccc(COc2ccc(B(OCCN)c3ccccc3)cc2)cc1` [Example 371, (4-phenylaminoethoxyborylphenyl)(4′-phenylaminoethoxyborylbenzyl)ether]: the “TGase activity remaining (% of DMSO control = 100)” value in the test on transglutaminase (TGase) (setting [3]) and with transglutaminase (TGase) (setting [4]) was 16 each time. In addition, the x-Fold in test [1] (setting [5]) and in test [1] (setting [6]) was 0.85 in each case. Also, the IC50 in test [2] (setting [7]) and in test [2] (setting [8]) was 2000 nM each time.

As to `CC(C)(C)c1cc(B(O)c2ccccc2)c2c(c1)C(C)(C)c1cc(C(C)(C)C)cc(B(O)c3ccccc3)c1O2` [Example 377, 4,5-di(phenylhydrixyboryl)-2,7-di-tert-butyl-9,9-dimethylxanthrene], the “TGase activity remaining (% of DMSO control = 100)” value in the test with transglutaminase (TGase) (setting [3]) and in the test with transglutaminase (TGase) (setting [4]) was 70 throughout. The x-Fold in test [1] (setting [5]) and in test [1] (setting [6]) was 0.75 each time. Further, the IC50 in test [2] (setting [7]) and in test [2] (setting [8]) was > 20000 nM in each case.

With `CNCCOB(c1ccccc1)c1ccc(Oc2ccc(B(OCCNC)c3ccccc3)cc2)cc1` [Example 386, bis(4,4′-(phenyl-N-methylaminoethoxyboryl)phenyl)ether], the “TGase activity remaining (% of DMSO control = 100)” value in the test with transglutaminase (TGase) (setting [3]) and in the test with transglutaminase (TGase) (setting [4]) was 10 each time. For the same compound, the x-Fold in test [1] (setting [5]) and in test [1] (setting [6]) was 0.98 each time. Also, the IC50 (commonly the concentration needed to halve the response being measured) in test [2] (setting [9]) turned out to be 500 nM.

Consider `NC(=O)CCC(N)C(=O)OB(c1ccccc1)c1ccc(Oc2ccc(B(OC(=O)C(N)CCC(N)=O)c3ccccc3)cc2)cc1` (centres unmarked) [Example 388, bis(4,4′-(phenyl-glutamineboryl)phenyl)ether], for which the “TGase activity remaining (% of DMSO control = 100)” value with transglutaminase (TGase) (setting [3]) stood at 41; in the test on transglutaminase (TGase) (TGase inhibitory activity value, Table 1, listed as 7085), 41. The x-Fold in test [1] (polyglutamine aggregation inhibitory activity, Table 1, listed as 7085) is given as 0.67; in test [1] (setting [6]), 0.67. Further, in test [2] (setting [9]), the IC50 came out at 500 nM.

On to `CNCCOB(c1ccccc1)c1ccc(Oc2ccc(B(OCCNC)c3ccc(CO)cc3)cc2)cc1` [Example 391, (4-(phenyl-N-methylaminoethoxyboryl)phenyl)(4′-(hydroxymethylphenyl-N-methylaminoethoxyboryl)phenyl)ether], for which the “TGase activity remaining (% of DMSO control = 100)” value in the test on transglutaminase (TGase) (setting [3]) and in the test on transglutaminase (TGase) (setting [4]) was 15 in each case. Moreover, the x-Fold in test [1] (setting [5]) and in test [1] (setting [6]) was 0.32 each time. Besides, the IC50 in test [2] (setting [7]) and in test [2] (setting [8]) was 500 nM throughout.

As for `NC(=O)CCC(N)C(=O)OB(c1ccccc1)c1ccc(Oc2ccc(B(OC(=O)C(N)CCC(N)=O)c3ccc(CO)cc3)cc2)cc1` (centres unmarked) [Example 394, (4-(phenyl-glutamineboryl)phenyl)(4′-(hydroxymethylphenyl-glutamineboryl)phenyl)ether], the “TGase activity remaining (% of DMSO control = 100)” value with transglutaminase (TGase) (setting [3]) and with transglutaminase (TGase) (setting [4]) was 41 in each case. Moreover, the x-Fold in test [1] (setting [5]) and in test [1] (setting [6]) was 0.44 throughout. In addition, the concentration for half-maximal inhibition (IC50) in test [2] (setting [7]) and in test [2] (setting [8]) was 1500 nM throughout.

As to `NCCNCCOB(c1ccccc1)c1ccc(Oc2ccc(B(OCCNCCN)c3ccccc3)cc2)cc1` [Example 396, bis(4,4′-(phenyl-N-aminoethyl-aminoethoxyboryl)phenyl)ether], the “TGase activity remaining (% of DMSO control = 100)” value with transglutaminase (TGase) (setting [3]) and with transglutaminase (TGase) (setting [4]) was 3 in each case. Also, the x-Fold in test [1] (setting [5]) and in test [1] (setting [6]) was 0.58 throughout. In addition, the half-inhibitory concentration (IC50) in test [2] (setting [9]) came to 1200 nM.

On to `NC(=O)CC(N)C(=O)OB(c1ccccc1)c1cccc(COCc2cccc(B(OC(=O)C(N)CC(N)=O)c3ccccc3)c2)c1` (centres unmarked) [Example 404, bis(3,3′-(phenyl-asparagineboryl)benzyl)ether], for which the “TGase activity remaining (% of DMSO control = 100)” value is reported as 105 in the test on transglutaminase (TGase) (setting [3]) and 105 in the test on transglutaminase (TGase) (TGase inhibitory activity measurement, unit not given, listed as 2023). The x-Fold in test [1] (polyglutamine aggregation, Truncated N-terminal huntington 150 Q-EGFP-Neuron 2a cells, listed as 2023) is listed as 1.07; in test [1] (setting [6]), 1.07. Besides, the IC50 in test [2] (setting [7]) is 4000 nM; in test [2] (Cricetulus griseus, CHO, CHO cells, thapsigargin store depletion), 4000 nM.

As for `NCCCCC(N)C(=O)OB(c1ccccc1)c1ccc(COCc2ccc(B(OC(=O)C(N)CCCCN)c3ccccc3)cc2)cc1` (centres unmarked) [Example 409, bis(4,4′-(phenyl-lysineboryl)benzyl)ether], the “TGase activity remaining (% of DMSO control = 100)” value in the test with transglutaminase (TGase) (setting [3]) and in the test with transglutaminase (TGase) (setting [10]) was 29 throughout. The x-Fold in test [1] (setting [11]) and in test [1] (setting [6]) was 0.86 each time. In test [2] (setting [9]), the half-inhibitory concentration (IC50) worked out at 1500 nM.

As for `COc1ccc(B(O)c2ccc(COCc3ccc(B(O)c4ccc(OC)cc4)cc3)cc2)cc1` [Example 410, bis(4,4′-(p-methoxy-phenyl-hydroxyboryl)benzyl)ether], the “TGase activity remaining (% of DMSO control = 100)” value in the test with transglutaminase (TGase) (setting [3]) is recorded as 130. In test [1] (setting [6]), the x-Fold was determined as 0.90. In test [2] (setting [9]), the IC50 was found to be 2000 nM.

For the compound `COc1ccc(B(OCCN)c2ccc(COCc3ccc(B(OCCN)c4ccc(OC)cc4)cc3)cc2)cc1` [Example 412, bis(4,4′-(p-methoxyphenyl-aminoethoxyboryl)benzyl)ether], the “TGase activity remaining (% of DMSO control = 100)” value in the test on transglutaminase (TGase) (setting [3]) and in the test on transglutaminase (TGase) (setting [10]) was 65 throughout. Also, the x-Fold in test [1] (setting [11]) and in test [1] (setting [6]) was 0.89 in each case. Further, the concentration for half-maximal inhibition (IC50) in test [2] (setting [9]) was determined as 2000 nM.

As to `CNCCOB(c1ccc(COCc2ccc(B(OCCNC)c3ccc(OC)cc3)cc2)cc1)c1ccc(OC)cc1` [Example 413, bis(4,4′-(p-methoxyphenyl-N-methylaminoethoxyboryl)benzyl)ether], the “TGase activity remaining (% of DMSO control = 100)” value with transglutaminase (TGase) (setting [3]) and in the test on transglutaminase (TGase) (setting [10]) was 28 each time. For the same compound, the x-Fold in test [1] (setting [11]) and in test [1] (setting [6]) was 0.81 in each case. Moreover, the IC50 in test [2] (setting [9]) turned out to be 800 nM.

On to `Cc1ccc(B(OCCN)c2ccc(COCc3ccc(B(OCCN)c4ccc(C)c(Cl)c4)cc3)cc2)cc1Cl` [Example 420, bis(4,4′-(3-chloro-4-methylphenyl-aminoethoxyboryl)benzyl)ether], for which the “TGase activity remaining (% of DMSO control = 100)” value with transglutaminase (TGase) (setting [3]) and in the test with transglutaminase (TGase) (setting [10]) was −3 throughout. The x-Fold in test [1] (setting [11]) and in test [1] (setting [6]) was 0.81 each time. Also, in test [2] (setting [9]), the IC50 stood at 1200 nM.

`CNCCOB(c1ccc(COCc2ccc(B(OCCNC)c3ccc(C)c(Cl)c3)cc2)cc1)c1ccc(C)c(Cl)c1` [Example 421, bis(4,4′-(3-chloro-4-methylphenyl-N-methylaminoethoxyboryl)benzyl)ether]: the “TGase activity remaining (% of DMSO control = 100)” value in the test on transglutaminase (TGase) (setting [3]) and with transglutaminase (TGase) (setting [10]) was −1 throughout. The x-Fold in test [1] (setting [5]) was 0.87; in test [1] (setting [11]), 1.03; in test [1] (setting [6]), 1.03. Besides, the IC50 in test [2] (setting [9]) came to 1200 nM.

On to `Cc1ccc(B(OCCN(C)C)c2ccc(COCc3ccc(B(OCCN(C)C)c4ccc(C)c(Cl)c4)cc3)cc2)cc1Cl` [Example 422, bis(4,4′-(3-chloro-4-methylphenyl-N,N-dimethylaminoethoxyboryl)benzyl)ether], for which the “TGase activity remaining (% of DMSO control = 100)” value with transglutaminase (TGase) (setting [3]) and in the test on transglutaminase (TGase) (setting [10]) was 13 in each case. The x-Fold is 0.91 in test [1] (setting [5]), 0.95 in test [1] (setting [11]) and 0.95 in test [1] (setting [6]). The values for the IC50 in test [2] (setting [9]) and in test [2] (Table 1) were 1200 nM and 700 nM, respectively.

Regarding `Cc1ccc(B(OCC2CCCCN2)c2ccc(COCc3ccc(B(OCC4CCCCN4)c4ccc(C)c(Cl)c4)cc3)cc2)cc1Cl` (centres unmarked) [Example 423, bis(4,4′-(3-chloro-4-methylphenyl-2-piperidylmethoxyboryl)benzyl)ether], the “TGase activity remaining (% of DMSO control = 100)” value in the test with transglutaminase (TGase) (setting [3]) and in the test on transglutaminase (TGase) (setting [10]) was 27 throughout. The x-Fold in test [1] (setting [11]) and in test [1] (setting [6]) was 0.76 throughout. Moreover, the IC50 in test [2] (setting [9]) is 1200 nM.

Consider `CN(C)CCOB(c1ccc(COCc2ccc(B(OCCN(C)C)c3ccc(C(F)(F)F)cc3)cc2)cc1)c1ccc(C(F)(F)F)cc1` [Example 424, bis(4,4′-(p-trifluoromethylphenyl-N,N-dimethylaminoethoxyboryl)benzyl)ether], for which the “TGase activity remaining (% of DMSO control = 100)” value with transglutaminase (TGase) (setting [3]) and in the test with transglutaminase (TGase) (setting [10]) was 22 each time. Also, the x-Fold in test [1] (setting [5]) turned out to be 0.69; in test [1] (setting [11]), 1.03; in test [1] (setting [6]), 1.03. Moreover, the 50% inhibitory concentration (IC50) in test [2] (setting [9]) was 1200 nM.
